This is an account of results in patent US20240390340A1 (INCYTE CORPORATION, priority 2023, published 2024).

Molecules are shown by their SMILES. A value given as a limit tells only on which side of the number the result lay.

In one assay the target is KRAS G12V (Homo sapiens, UniProt P01116, G12V). The assay can be described thus: GDP-GTP exchange assay (bodipy-GDP/GppNHp, SOS1), KRAS G12V. The assay is classed as biochemical. The following applies: KRAS G12V mutant; value for the most potent isomer quoted for certain compounds; read-out: G12V (KRAS G12V exchange assay IC50).
Sequence of KRAS G12V (P01116 1-188 isoform P01116-2 G12V): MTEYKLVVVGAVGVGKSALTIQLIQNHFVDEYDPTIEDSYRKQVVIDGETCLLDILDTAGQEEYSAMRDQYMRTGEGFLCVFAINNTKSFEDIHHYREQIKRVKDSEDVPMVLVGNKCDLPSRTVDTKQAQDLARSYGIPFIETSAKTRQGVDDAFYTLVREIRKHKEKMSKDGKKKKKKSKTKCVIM
Another assay has as its target KRAS G12D (Homo sapiens, UniProt P01116, G12D). The assay can be described thus: GDP-GTP exchange assay (bodipy-GDP/GppNHp, SOS1), KRAS G12D. It counts as biochemical. The following applies: bodipy-loaded KRAS G12D 2.5 nM, 4 h pre-incubation; value for the most potent isomer quoted for certain compounds; read-out: G12D (KRAS G12D exchange assay IC50).

Sequence of KRAS G12D (P01116 1-188 isoform P01116-2 G12D): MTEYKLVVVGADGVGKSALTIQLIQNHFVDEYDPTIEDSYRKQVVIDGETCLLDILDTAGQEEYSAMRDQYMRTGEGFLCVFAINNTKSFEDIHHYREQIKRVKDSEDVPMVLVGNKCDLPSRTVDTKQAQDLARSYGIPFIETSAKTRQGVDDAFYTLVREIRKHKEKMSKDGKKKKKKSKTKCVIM

In general, IC50 refers to the midpoint of a concentration-inhibition curve. As to `Cc1nc2c(F)c(-c3cccc(Cl)c3Cl)c(CCC#N)cc2c2c1cc([C@H]1C[C@H](OC(C)c3ccccc3)CN1C(=O)C1CC1)n2[C@H]1[C@H]2CN[C@@H]1C2` (stereo partly drawn) [Example 93], the IC50 at KRAS G12V and at KRAS G12D was ≤ 100 nM each time.
For `[2H]C([2H])(O[C@H]1C[C@H](c2cc3c(C)nc4c(F)c(-c5cccc(Cl)c5Cl)c(CCC#N)cc4c3n2[C@H]2[C@H]3CN[C@@H]2C3)N(C(=O)C2CC2)[C@@H]1C)c1cc(C)sn1` [Example 241], the IC50 at KRAS G12V and on KRAS G12D was ≤ 100 nM in each case.
With `Cc1cc(C)cc(O[C@H]2C[C@H](c3cc4c(C)nc5c(F)c(-c6cccc(Cl)c6Cl)c(CCC#N)cc5c4n3[C@H]3[C@H]4CN[C@@H]3C4)N(C(=O)C3CC3)C2)c1` [Example 166], the IC50 at KRAS G12V and on KRAS G12D was ≤ 100 nM throughout.
Regarding `Cc1nc2c(F)c(-c3cccc(Cl)c3Cl)c(CCC#N)cc2c2c1cc([C@H]1C[C@H](OC(C)c3ncco3)CN1C(=O)C1CC1)n2[C@H]1[C@H]2CN[C@@H]1C2` (stereo partly drawn) [Example 228], the IC50 at KRAS G12V and at KRAS G12D was ≤ 100 nM in each case.
Take `Cc1nc2c(F)c(-c3cccc(Cl)c3Cl)c(CCC#N)cc2c2c1cc([C@H]1C[C@H](OCc3ccccc3C#N)CN1C(=O)C1CC1)n2[C@H]1[C@H]2CN[C@@H]1C2` [Example 98]: the IC50 at KRAS G12V and at KRAS G12D was ≤ 100 nM throughout.
On to `COc1ccnc(O[C@H]2C[C@H](c3cc4c(C)nc5c(F)c(-c6cccc(Cl)c6Cl)c(CCC#N)cc5c4n3[C@H]3[C@H]4CN[C@@H]3C4)N(C(=O)C3CC3)C2)n1` [Example 247], for which the IC50 at KRAS G12V and at KRAS G12D was ≤ 100 nM each time.
Take `Cc1nc2c(F)c(-c3cccc(Cl)c3Cl)c(CCC#N)cc2c2c1cc([C@H]1C[C@H](Oc3cn(C)nc3C(F)(F)F)CN1C(=O)C1CC1)n2[C@H]1[C@H]2CN[C@@H]1C2` [Example 376]: the 50% inhibitory concentration (IC50) at KRAS G12V and at KRAS G12D was ≤ 100 nM in each case.
For `Cc1nc2c(F)c(-c3cccc(Cl)c3Cl)c(CCC#N)cc2c2c1cc([C@H]1C[C@H](Oc3ccccc3)CN1C(=O)C1CC1)n2[C@H]1[C@H]2CN[C@@H]1C2` [Example 103], the IC50 at KRAS G12V and on KRAS G12D was ≤ 100 nM in each case.
In the case of `Cc1nc2c(F)c(-c3cccc(Cl)c3Cl)c(CCC#N)cc2c2c1cc([C@H]1C[C@H](n3cc(C4(C)CCCC4)nn3)CN1C(=O)C1CC1)n2[C@H]1[C@H]2CN[C@@H]1C2` [Example 386], the IC50 on KRAS G12V and at KRAS G12D was ≤ 100 nM throughout.
In the case of `Cc1nc2c(F)c(-c3cccc(Cl)c3Cl)c(CCC#N)cc2c2c1cc([C@H]1C[C@H](OC3CC3)CN1C(=O)C1CC1)n2[C@H]1[C@H]2CN[C@@H]1C2` [Example 230], the IC50 on KRAS G12V and at KRAS G12D was ≤ 100 nM in each case.
As for `COc1cccc(CO[C@H]2C[C@H](c3cc4c(C)nc5c(F)c(-c6cccc(Cl)c6Cl)c(CCC#N)cc5c4n3[C@H]3[C@H]4CN[C@@H]3C4)N(C(=O)C3CC3)C2)n1` [Example 267], the IC50 on KRAS G12V and at KRAS G12D was ≤ 100 nM each time.
In the case of `N#CCCc1cc2c(nc(C3CCNC3)c3cc([C@H]4C[C@H](OCc5c(F)cccc5F)CN4C(=O)C4CC4)n([C@H]4[C@H]5CN[C@@H]4C5)c32)c(F)c1-c1cccc(Cl)c1Cl` (stereo partly drawn) [Example 239], the IC50 on KRAS G12V and on KRAS G12D was ≤ 100 nM throughout.
With `Cc1nc2c(F)c(-c3cccc(Cl)c3Cl)c(CCC#N)cc2c2c1cc([C@H]1C[C@H](Oc3ccncc3)CN1C(=O)C1CC1)n2[C@H]1[C@H]2CN[C@@H]1C2` [Example 193], the IC50 at KRAS G12V and on KRAS G12D was ≤ 100 nM in each case.
As to `Cc1nc2c(F)c(-c3cccc(Cl)c3Cl)c(CCC#N)cc2c2c1cc([C@H]1C[C@H](n3nnc(CO)c3C)CN1C(=O)C1CC1)n2[C@H]1[C@H]2CN[C@@H]1C2` [Example 326], the IC50 on KRAS G12V and at KRAS G12D was ≤ 100 nM throughout.
On to `Cc1nc2c(F)c(-c3cccc(Cl)c3Cl)c(CCC#N)cc2c2c1cc([C@H]1C[C@H](n3cc(C(F)(F)F)nn3)CN1C(=O)C1CC1)n2[C@H]1[C@H]2CN[C@@H]1C2` [Example 414], for which the IC50 on KRAS G12V and on KRAS G12D was ≤ 100 nM throughout.
Turning to `Cc1nc2c(F)c(-c3cccc(Cl)c3Cl)c(CCC#N)cc2c2c1cc([C@H]1C[C@H](Oc3nccs3)CN1C(=O)C1CC1)n2[C@H]1[C@H]2CN[C@@H]1C2` [Example 341], the IC50 on KRAS G12V and on KRAS G12D was ≤ 100 nM throughout.
Consider `CC(O)c1nc2c(F)c(-c3cccc(Cl)c3Cl)c(CCC#N)cc2c2c1cc([C@H]1C[C@H](OCc3ccc(F)cc3C#N)CN1C(=O)C1CC1)n2[C@H]1[C@H]2CN[C@@H]1C2` (stereo partly drawn) [Example 178], for which the IC50 at KRAS G12V and at KRAS G12D was ≤ 100 nM throughout.
With `Cc1nc2c(F)c(-c3cccc(Cl)c3Cl)c(CCC#N)cc2c2c1cc([C@H]1C[C@H](Oc3cc(C(F)(F)F)nn3C)CN1C(=O)C1CC1)n2[C@H]1[C@H]2CN[C@@H]1C2` [Example 375], the IC50 on KRAS G12V and at KRAS G12D was ≤ 100 nM throughout.
`Cc1nc2c(F)c(-c3cccc(Cl)c3Cl)c(CCC#N)cc2c2c1cc([C@H]1C[C@H](Oc3ccn(C)c(=O)c3)CN1C(=O)C1CC1)n2[C@H]1[C@H]2CN[C@@H]1C2` [Example 419]: the IC50 on KRAS G12V and at KRAS G12D was ≤ 100 nM throughout.
For the molecule `Cc1nc2c(F)c(-c3cccc(Cl)c3Cl)c(CCC#N)cc2c2c1cc([C@H]1C[C@H](Oc3cccc(C#N)c3)[C@H](C)N1C(=O)C1CC1)n2[C@H]1[C@H]2CN[C@@H]1C2` [Example 209], the figures for the IC50 on KRAS G12V and on KRAS G12D were 100 to 1000 nM and ≤ 100 nM, respectively.
In the case of `Cc1nc2c(F)c(-c3cccc(Cl)c3Cl)c(CCC#N)cc2c2c1cc([C@H]1C[C@H](Oc3cccnc3C#N)CN1C(=O)C1CC1)n2[C@H]1[C@H]2CN[C@@H]1C2` [Example 294], the IC50 at KRAS G12V and on KRAS G12D was ≤ 100 nM throughout.
In the case of `Cc1nc2c(F)c(-c3cccc(Cl)c3Cl)c(CCC#N)cc2c2c1cc([C@H]1C[C@H](OCc3cn(C4CC4)nn3)CN1C(=O)C1CC1)n2[C@H]1[C@H]2CN[C@@H]1C2` [Example 235], the IC50 at KRAS G12V and at KRAS G12D was ≤ 100 nM each time.
Consider `[2H]C([2H])(O[C@H]1C[C@H](c2cc3c(C(C)O)nc4c(F)c(-c5cccc(Cl)c5Cl)c(CCC#N)cc4c3n2[C@H]2[C@H]3CN[C@@H]2C3)N(C(=O)C2CC2)C1)c1nscc1C` (stereo partly drawn) [Example 237], for which the IC50 at KRAS G12V and at KRAS G12D was ≤ 100 nM in each case.
As to `CC(=O)NC(C)(C)c1cn([C@H]2C[C@H](c3cc4c(C)nc5c(F)c(-c6cccc(Cl)c6Cl)c(CCC#N)cc5c4n3[C@H]3[C@H]4CN[C@@H]3C4)N(C(=O)C3CC3)C2)nn1` [Example 272], the concentration for half-maximal inhibition (IC50) on KRAS G12V and on KRAS G12D was ≤ 100 nM in each case.
As to `COC(=O)c1cnn([C@H]2C[C@H](c3cc4c(C)nc5c(F)c(-c6cccc(Cl)c6Cl)c(CCC#N)cc5c4n3[C@H]3[C@H]4CN[C@@H]3C4)N(C(=O)C3CC3)C2)c1` [Example 353], the IC50 on KRAS G12V and on KRAS G12D was ≤ 100 nM each time.
Consider `Cc1nc2c(F)c(-c3cccc(Cl)c3Cl)c(CCC#N)cc2c2c1cc([C@H]1C[C@H](OCc3ccccc3S(C)(=O)=O)CN1C(=O)C1CC1)n2[C@H]1[C@H]2CN[C@@H]1C2` [Example 163], for which the IC50 at KRAS G12V and at KRAS G12D was ≤ 100 nM in each case.
As for `Cc1nc2c(F)c(-c3cccc(Cl)c3Cl)c(CCC#N)cc2c2c1cc([C@H]1C[C@H](Oc3cc(Cl)ccn3)CN1C(=O)C1CC1)n2[C@H]1[C@H]2CN[C@@H]1C2` [Example 297], the IC50 on KRAS G12V and at KRAS G12D was ≤ 100 nM each time.
Take `Cc1nc2c(F)c(-c3cccc(Cl)c3Cl)c(CCC#N)cc2c2c1cc([C@H]1C[C@H](n3cc(C4CC4)cn3)CN1C(=O)C1CC1)n2[C@H]1[C@H]2CN[C@@H]1C2` [Example 429]: the concentration for half-maximal inhibition (IC50) on KRAS G12V and at KRAS G12D was ≤ 100 nM in each case.
With `Cc1nc2c(F)c(-c3cccc(Cl)c3Cl)c(CCC#N)cc2c2c1cc([C@H]1C[C@H](Oc3cnn(CC(F)F)c3)CN1C(=O)C1CC1)n2[C@H]1[C@H]2CN[C@@H]1C2` [Example 377], the concentration for half-maximal inhibition (IC50) at KRAS G12V and at KRAS G12D was ≤ 100 nM throughout.
With `Cc1nc2c(F)c(-c3cccc(Cl)c3Cl)c(CCC#N)cc2c2c1cc([C@H]1C[C@H](OCc3cnn(C)n3)CN1C(=O)C1CC1)n2[C@H]1[C@H]2CN[C@@H]1C2` [Example 105], the IC50 on KRAS G12V and at KRAS G12D was ≤ 100 nM in each case.
As for `Cc1cccnc1CO[C@H]1C[C@H](c2cc3c(C)nc4c(F)c(-c5cccc(Cl)c5Cl)c(CCC#N)cc4c3n2[C@H]2[C@H]3CN[C@@H]2C3)N(C(=O)C2CC2)C1` [Example 150], the IC50 on KRAS G12V and at KRAS G12D was ≤ 100 nM throughout.
Regarding `Cc1nc2c(F)c(-c3cccc(Cl)c3Cl)c(CCC#N)cc2c2c1cc([C@H]1C[C@H](OCc3cccc(S(C)(=O)=O)c3)CN1C(=O)C1CC1)n2[C@H]1[C@H]2CN[C@@H]1C2` [Example 164], the IC50 on KRAS G12V and at KRAS G12D was ≤ 100 nM each time.
Consider `Cc1nc2c(F)c(-c3cccc(Cl)c3Cl)c(CCC#N)cc2c2c1cc([C@H]1C[C@H](OCc3ccc(C#N)cc3)CN1C(=O)C1CC1)n2[C@H]1[C@H]2CN[C@@H]1C2` [Example 152], for which the IC50 at KRAS G12V and at KRAS G12D was ≤ 100 nM in each case.
In the case of `Cc1cc(C)n([C@H]2C[C@H](c3cc4c(C)nc5c(F)c(-c6cccc(Cl)c6Cl)c(CCC#N)cc5c4n3[C@H]3[C@H]4CN[C@@H]3C4)N(C(=O)C3CC3)C2)n1` [Example 355], the half-maximal inhibitory concentration (IC50) at KRAS G12V and on KRAS G12D was ≤ 100 nM each time.
As for `Cc1nc2c(F)c(-c3cccc(Cl)c3Cl)c(CCC#N)cc2c2c1cc([C@H]1C[C@H](N3C(=O)COC3=O)CN1C(=O)C1CC1)n2[C@H]1[C@H]2CN[C@@H]1C2` [Example 320], the IC50 on KRAS G12V and on KRAS G12D was ≤ 100 nM each time.
Take `COC(=O)N1C[C@@H](Oc2ccccn2)C[C@@H]1c1cc2c(-c3ccc(CN(C)C)c(F)c3F)nc3c(F)c(-c4cccc(Cl)c4Cl)c(CCC#N)cc3c2n1[C@H]1[C@H]2CN[C@@H]1C2` [Example 148]: the IC50 at KRAS G12V and on KRAS G12D was ≤ 100 nM each time.
